Data published in patent US12384776B2, “Compounds and uses thereof” (Foghorn Therapeutics Inc., priority 2019, dated 2025).
pIC50: −log10 of the molar value.

What was measured:
[1] = target: Nanoluciferase-BRD9 fusion protein (3×FLAG-NLuc-BRD9) in SYO-1 cells (Homo sapiens (Human), UniProt Q9H8M2); test: SYO1 BRD9 NanoLuc degradation assay; assay type: cell-based; conditions: SYO-1 cells, 6 hours, Table 6A
Outline: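 Stable SYO-1 line expressing 3×FLAG-NLuc-BRD9, treated with 10-point 3-fold dilutions (top 1 μM final) for 6 hours. Nanoluciferase luminescence read with Nano-Glo reagent. % inhibition relative to DMSO (high control) and 1 μM reference BRD9 degrader (low control).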

BRD9 bromodomain = BRD9 bromodomain (Homo sapiens (Human), UniProt Q9H8M2); test: BRD9 bromodomain TR-FRET competition binding assay
BRD9 bromodomain, sequence (Q9H8M2 133-239): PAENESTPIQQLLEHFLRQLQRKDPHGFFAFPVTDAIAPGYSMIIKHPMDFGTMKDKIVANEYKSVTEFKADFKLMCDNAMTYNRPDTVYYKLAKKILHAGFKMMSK
Protocol: Procedure: His-Flag-BRD9 (P133-K239; Swiss Prot Q9H8M2; SEQ ID NO:1 mgsshhhhhhenlyfq/gdykddddkgslevlfqg/[…] […]) was cloned, expressed, purified, and then treated with TEV protease. Cleaved His tag was removed by purification. The binding of a biotinylated small molecule ligand of BRD9 was assessed via the LANCE® TR-FRET platform (PerkinElmer), and the compounds were assayed for inhibitory activity against this interaction.
Results: A mixture of biotinylated-ligand and SureLight™ Allophycocyanin-Streptavidin (APC-SA, PerkinElmer AD0201) in 50 mM HEPES (pH 7.4), 50 mM NaCl, 1 mM TCEP (pH 7), 0.01% (v/v) Tween-20, 0.01% (w/v) bovine serum albumin was added to a white 384-well PerkinElmer Proxiplate Plus plate. DMSO or 3-fold serially diluted compounds were then added to the Proxiplate followed by addition of Flag-BRD9. After a 10-minute incubation at room temperature, Eu—W1024 anti-FLAG (PerkinElmer, AD0273) was added. The final reaction mixture that contained 3.75 nM biotinylated ligand, 3 nM Flag-BRD9, 7.5 nM SureLight™ Allophycocyanin-Streptavidin, and 0.2 nM Eu—W1024 anti-FLAG was incubated at room temperature for 90 minutes.
The plates were then read on a PerkinElmer Envision plate reader to determine the ratio of emission at 665 nm over 615 nm. […]

Nanoluciferase-BRD9 fusion protein (3×FLAG-NLuc-BRD9) in SYO-1 cells, sequence (Q9H8M2 whole entry, the tested form may be a part): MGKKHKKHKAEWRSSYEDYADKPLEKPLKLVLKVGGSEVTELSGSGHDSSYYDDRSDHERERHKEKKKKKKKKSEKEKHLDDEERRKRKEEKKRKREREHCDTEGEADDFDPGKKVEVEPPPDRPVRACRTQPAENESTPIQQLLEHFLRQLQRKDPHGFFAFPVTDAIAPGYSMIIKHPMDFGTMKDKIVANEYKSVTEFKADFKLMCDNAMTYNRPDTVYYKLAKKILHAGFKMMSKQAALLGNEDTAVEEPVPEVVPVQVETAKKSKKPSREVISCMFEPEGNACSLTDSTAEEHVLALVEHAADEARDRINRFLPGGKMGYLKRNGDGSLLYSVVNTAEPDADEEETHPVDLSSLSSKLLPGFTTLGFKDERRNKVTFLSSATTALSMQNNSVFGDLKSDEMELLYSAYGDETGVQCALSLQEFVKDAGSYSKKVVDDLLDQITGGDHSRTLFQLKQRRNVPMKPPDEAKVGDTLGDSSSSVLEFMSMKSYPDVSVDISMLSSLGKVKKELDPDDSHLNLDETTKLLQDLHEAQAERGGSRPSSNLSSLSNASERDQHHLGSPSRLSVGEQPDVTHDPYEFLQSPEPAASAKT

SMILES | pIC50 [1] | pIC50 (BRD9 bromodomain)
COc1cc(-c2cn(C)c(=O)c3c2CCN(C(=O)NCCOCCNc2cccc4c2C(=O)N(C2CCC(=O)NC2=O)C4=O)C3)c(OC)cc1CN(C)C (stereo not shown) [Compound D14, 5-[4-[(dimethylamino)methyl]-2,5-dimethoxyphenyl]-N-[2-(2-[[2-(2,6-dioxopiperidin-3-yl)-1,3-dioxoisoindol-4-yl]amino]ethoxy)ethyl]-7-methyl-8-oxo-3,4-dihydro-1H-2,7-naphthyridine-2-carboxamide formic acid] | < 7.00 | < 8.00
CNC(=O)N1CCc2c(-c3cc(OC)c(CN4CC(NC(=O)CCCCCOc5cccc6c5C(=O)N(C5CCC(=O)NC5=O)C6=O)C4)cc3OC)cn(C)c(=O)c2C1 (stereo not shown) [Compound D15, 5-(4-[[3-(6-[[2-(2,6-Dioxopiperidin-3-yl)-1,3-dioxoisoindol-4-yl]oxy]hexanamido)azetidin-1-yl]methyl]-2,5-dimethoxyphenyl)-N,7-dimethyl-8-oxo-3,4-dihydro-1H-2,7-naphthyridine-2-carboxamide formic acid] | < 7.00 | < 8.00
COc1cc(-c2cn(C)c(=O)c3c2CCN(C(=O)CCCCCCCCNc2cccc4c2C(=O)N(C2CCC(=O)NC2=O)C4=O)C3)cc(OC)c1CN(C)C (stereo not shown) [Compound D19, 4-[[9-(5-[4-[(dimethylamino)methyl]-3,5-dimethoxyphenyl]-7-methyl-8-oxo-1,2,3,4,7,8-hexahydro-2,7-naphthyridin-2-yl)-9-oxononyl]amino]-2-(2,6-dioxopiperidin-3-yl)-2,3-dihydro-1H-isoindole-1,3-dione] | < 6.00 | < 6.00
COc1cc(-c2cn(C)c(=O)c3c2CCN(C(=O)CCCCCOc2cccc4c2C(=O)N(C2CCC(=O)NC2=O)C4=O)C3)cc(OC)c1CN(C)C (stereo not shown) [Compound D20, ([4-[7-(6-[[2-(2,6-dioxopiperidin-3-yl)-1,3-dioxo-2,3-dihydro-1H-isoindol-4-yl]oxy]hexanoyl)-2-methyl-1-oxo-1,2,5,6,7,8-hexahydro-2,7-naphthyridin-4-yl]-2,6-dimethoxyphenyl]methyl)(methyl)aminyl] | < 6.00 | < 6.00
COc1cc(-c2cn(C)c(=O)c3c2CN(C(=O)NCCOCCOCCNc2cccc4c2C(=O)N(C2CCC(=O)NC2=O)C4=O)CC3)cc(OC)c1CN(C)C (stereo not shown) [Compound D23, 8-[4-[(dimethylamino)methyl]-3,5-dimethoxyphenyl]-N-[2-[2-(2-[[2-(2,6-dioxopiperidin-3-yl)-1,3-dioxoisoindol-4-yl]amino]ethoxy)ethoxy]ethyl]-6-methyl-5-oxo-3,4-dihydro-1H-2,6-naphthyridine-2-carboxamide formic acid] | < 6.00 | < 7.00
COc1cc(-c2cn(C)c(=O)c3c2CCN(C(=O)NCCCCCCCCNc2cccc4c2CN(C2CCC(=O)NC2=O)C4=O)C3)cc(OC)c1CN(C)C (stereo not shown) [Compound D29, 5-(4-((dimethylamino)methyl)-3,5-dimethoxyphenyl)-N-(8-((2-(2,6-dioxopiperidin-3-yl)-1-oxoisoindolin-4-yl)amino)octyl)-7-methyl-8-oxo-3,4,7,8-tetrahydro-2,7-naphthyridine-2 (1H)-carboxamide formic acid] | > 8.00 | > 8.00
COc1cc(-c2cn(C)c(=O)c3c2CCN(C(=O)NCCN(C)CCOCCOc2cccc4c2C(=O)N(C2CCC(=O)NC2=O)C4=O)C3)cc(OC)c1CN(C)C (stereo not shown) [Compound D30, 5-[4-[(dimethylamino)methyl]-3,5-dimethoxyphenyl]-N-(2-[[2-(2-[[2-(2,6-dioxopiperidin-3-yl)-1,3-dioxoisoindol-4-yl]oxy]ethoxy)ethyl](methyl)amino]ethyl)-7-methyl-8-oxo-3,4-dihydro-1H-2,7-naphthyridine-2-carboxamide formic acid] | < 6.00 | < 7.00

The next lines start with the values.

pIC50 [1] | pIC50 (BRD9 bromodomain) | SMILES
< 8.00 | < 8.00 | COc1cc(-c2cn(C)c(=O)c3c2CCN(C(=O)NCCOCCNc2cccc4c2C(=O)N(C2CCC(=O)NC2=O)C4=O)C3)cc(OC)c1CN(C)C (stereo not shown) [Compound D17, 5-[4-[(dimethylamino)methyl]-3,5-dimethoxyphenyl]-N-[2-(2-[[2-(2,6-dioxopiperidin-3-yl)-1,3-dioxoisoindol-4-yl]amino]ethoxy)ethyl]-7-methyl-8-oxo-3,4-dihydro-1H-2,7-naphthyridine-2-carboxamide formic acid]
< 8.00 | < 8.00 | COc1cc(-c2cn(C)c(=O)c3c2CCN(C(=O)NCCCCCOc2cccc4c2C(=O)N(C2CCC(=O)NC2=O)C4=O)C3)cc(OC)c1CN(C)C (stereo not shown) [Compound D18, 5-[4-[(dimethylamino)methyl]-3,5-dimethoxyphenyl]-N-(5-[[2-(2,6-dioxopiperidin-3-yl)-1,3-dioxoisoindol-4-yl]oxy]pentyl)-7-methyl-8-oxo-3,4-dihydro-1H-2,7-naphthyridine-2-carboxamide]
< 8.00 | < 8.00 | COc1cc(-c2cn(C)c(=O)c3c2CCN(C(=O)NCCOCCNc2ccc4c(c2)C(=O)N(C2CCC(=O)NC2=O)C4=O)C3)cc(OC)c1CN(C)C (stereo not shown) [Compound D21, 5-[4-[(dimethylamino)methyl]-3,5-dimethoxyphenyl]-N-[2-(2-[[2-(2,6-dioxopiperidin-3-yl)-1,3-dioxoisoindol-5-yl]amino]ethoxy)ethyl]-7-methyl-8-oxo-3,4-dihydro-1H-2,7-naphthyridine-2-carboxamide formic acid]
> 8.00 | > 8.00 | COc1cc(-c2cn(C)c(=O)c3c2CCN(C(=O)NCCCCCOc2ccc4c(c2)C(=O)N(C2CCC(=O)NC2=O)C4=O)C3)cc(OC)c1CN(C)C (stereo not shown) [Compound D22, formic acid]
< 6.00 | < 7.00 | CNC(=O)N1CCc2c(c(-c3cc(OC)c(CN(C)CC(=O)NCCOCCOc4cccc5c4C(=O)N(C4CCC(=O)NC4=O)C5=O)c(OC)c3)cn(C)c2=O)C1 (stereo not shown) [Compound D24, 8-(4-(((2-((2-(2-((2-(2,6-dioxopiperidin-3-yl)-1,3-dioxoisoindolin-4-yl)oxy)ethoxy)ethyl)amino)-2-oxoethyl)(methyl)amino)methyl)-3,5-dimethoxyphenyl)-N,6-dimethyl-5-oxo-3,4,5,6-tetrahydro-2,6-naphthyridine-2 (1H)-carboxamide]
> 8.00 | > 8.00 | CNC(=O)N1CCc2c(-c3cc(OC)c(CN4CCC(CCN5CCN(c6ccc7c(c6)C(=O)N(C6CCC(=O)NC6=O)C7=O)CC5)CC4)c(OC)c3)cn(C)c(=O)c2C1 (stereo not shown) [Compound D28, 5-(4-[[4-(2-[4-[2-(2,6-dioxopiperidin-3-yl)-1,3-dioxoisoindol-5-yl]piperazin-1-yl]ethyl)piperidin-1-yl]methyl]-3,5-dimethoxyphenyl)-N,7-dimethyl-8-oxo-3,4-dihydro-1H-2,7-naphthyridine-2-carboxamide formic acid]
< 8.00 | > 8.00 | CNC(=O)N1CCc2c(-c3cc(OC)c(CN4CCC5(CC4)CN(C(=O)CCCCOc4ccc6c(c4)C(=O)N(C4CCC(=O)NC4=O)C6=O)CCO5)c(OC)c3)cn(C)c(=O)c2C1 (stereo not shown) [Compound D31, 5-(4-((4-(5-((2-(2,6-dioxopiperidin-3-yl)-1,3-dioxoisoindolin-5-yl)oxy)pentanoyl)-1-oxa-4,9-diazaspiro[5.5]undecan-9-yl)methyl)-3,5-dimethoxyphenyl)-N,7-dimethyl-8-oxo-3,4,7,8-tetrahydro-2,7-naphthyridine-2 (1H)-carboxamide formic acid]
